Values of other authors as cited in patent US6506600B2, “Secreting products from skin by adeno-associated virus (AAV) gene transfer” (University of Arkansas, priority 2000, dated 2003).

How the values were obtained:
neutrophil count = settings: patients with neutropenia due to chemotherapy; initial dose 5 microg/kg/day
[1] = test system: pulmonary alveolar proteinosis; settings: four PAP patients; subcutaneous once daily for 12 wk, 3 to 9 μg/kg/d
neutropenia = settings: neonates <32 weeks gestation; 10 μg/kg/d subcutaneous for 5 days

Row | Substance | rise of neutrophil count (median) (neutrophil count) | serum half-life (serum) | symptomatic, physiologic and radiographic response [1] | effect on neutropenia (neutropenia) | t1/2 (in vivo)
1 | granulocyte macrophage colony stimulating factor [GM-CSF] | 6.6 fold | 8 h | Three of the four patients experienced symptomatic, physiologic, and radiographic improvement | completely abolished neutropenia | –
2 | hGH: human growth hormone, 22 kDa | – | – | – | – | 4 min
